# Test results: PubChem BioAssay AID1963980 (Molecular Pharmacology Branch, DTP, NCI, 2024)
# pIC50: −log10 of the molar value. Where “and” joins values, the source holds several entries; their conditions need not be identical. Equal entries are not always repeated.
# Tested on: 475296-252-R-J1-PDC spheroid viability
# Assay: Anticancer human tumor 475296-252-R-J1-PDC patient-derived rectal carcinoma cell line growth inhibition [PI3K]
# Details: spheroids with HUVEC and MSC; for viability, T/C: stronger effect = lower value
# Procedure, shortened: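 Targeted small molecules plus PI3K inhibitors, half-log dose series from Cmax (default top 10 microM), were applied to heterotypic spheroids of cancer cells with HUVEC and MSCs. Viability indicated growth inhibition.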
# [1] = curve of first compound, second compound 0.0316 µM
# [2] = curve of first compound, second compound 0.1 µM
# [3] = curve of first compound, second compound 0.316 µM
# [4] = curve of first compound, second compound 1 µM
# [5] = second compound 0.0316 µM, first compound 0.0316 µM
# [6] = second compound 0.0316 µM, first compound 0.1 µM
# [7] = second compound 0.0316 µM, first compound 0.316 µM
# [8] = second compound 0.0316 µM, first compound 1 µM
# [9] = second compound 0.0316 µM, first compound 3.16 µM
# [10] = second compound 0.0316 µM, first compound 10 µM
# [11] = second compound 0.1 µM, first compound 0.0316 µM
# [12] = second compound 0.1 µM, first compound 0.1 µM
# [13] = second compound 0.1 µM, first compound 0.316 µM
# [14] = second compound 0.1 µM, first compound 1 µM
# [15] = second compound 0.1 µM, first compound 3.16 µM
# [16] = second compound 0.1 µM, first compound 10 µM
# [17] = second compound 0.316 µM, first compound 0.0316 µM
# [18] = second compound 0.316 µM, first compound 0.1 µM
# [19] = second compound 0.316 µM, first compound 0.316 µM
# [20] = second compound 0.316 µM, first compound 1 µM
# [21] = second compound 0.316 µM, first compound 3.16 µM
# [22] = second compound 0.316 µM, first compound 10 µM
# [23] = second compound 1 µM, first compound 0.0316 µM
# [24] = second compound 1 µM, first compound 0.1 µM
# [25] = second compound 1 µM, first compound 0.316 µM
# [26] = second compound 1 µM, first compound 1 µM
# [27] = second compound 1 µM, first compound 3.16 µM
# [28] = second compound 1 µM, first compound 10 µM
# 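Further: spheroids exposed to agents for seven days before readout.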
smiles,measurement,setting,value
CC(C)NCC(C(=O)N1CCN(c2ncnc3c2C(C)CC3O)CC1)c1ccc(Cl)cc1 (stereo unspecified) + COc1c(OCCCN2CCOCC2)ccc2c3n(c(=NC(=O)c4cnc(N)nc4)nc12)CCN3,pIC50,"curve of first compound, second compound 0.00316 µM",< 5.00
same,pIC50,"curve of first compound, second compound 0.01 µM",< 5.00
same,pIC50,[1],< 5.00
same,pIC50,[2],< 5.00
same,pIC50,[3],< 5.00
same,pIC50,[4],5.21
same,"viability, T/C","second compound 0.00316 µM, first compound 0.0316 µM",98.5%
same,"viability, T/C","second compound 0.00316 µM, first compound 0.1 µM",94.5%
same,"viability, T/C","second compound 0.00316 µM, first compound 0.316 µM",94.1%
same,"viability, T/C","second compound 0.00316 µM, first compound 1 µM",92.2%
same,"viability, T/C","second compound 0.00316 µM, first compound 3.16 µM",67.2%
same,"viability, T/C","second compound 0.00316 µM, first compound 10 µM",55.1%
same,"viability, T/C","second compound 0.01 µM, first compound 0.0316 µM",106%
same,"viability, T/C","second compound 0.01 µM, first compound 0.1 µM",99%
same,"viability, T/C","second compound 0.01 µM, first compound 0.316 µM",96.5%
same,"viability, T/C","second compound 0.01 µM, first compound 1 µM",84.7%
same,"viability, T/C","second compound 0.01 µM, first compound 3.16 µM",65.6%
same,"viability, T/C","second compound 0.01 µM, first compound 10 µM",60%
same,"viability, T/C",[5],108%
same,"viability, T/C",[6],102%
same,"viability, T/C",[7],87.2%
same,"viability, T/C",[8],79.5%
same,"viability, T/C",[9],77%
same,"viability, T/C",[10],78.2%
same,"viability, T/C",[11],92.8%
same,"viability, T/C",[12],77.9%
same,"viability, T/C",[13],87.6%
same,"viability, T/C",[14],72.1%
same,"viability, T/C",[15],75.2%
same,"viability, T/C",[16],62%
same,"viability, T/C",[17],68.6%
same,"viability, T/C",[18],75%
same,"viability, T/C",[19],70.2%
same,"viability, T/C",[20],71.4%
same,"viability, T/C",[21],62.7%
same,"viability, T/C",[22],59.7%
same,"viability, T/C",[23],60.4%
same,"viability, T/C",[24],56%
same,"viability, T/C",[25],67%
same,"viability, T/C",[26],63.5%
same,"viability, T/C",[27],55.8%
same,"viability, T/C",[28],38.2%
Cn1ncnc1[C@H]1c2n[nH]c(=O)c3cc(F)cc(c23)N[C@@H]1c1ccc(F)cc1,"viability, T/C",compound 0.000316 µM,114% and 102% (2×) and 106%
same,"viability, T/C",compound 0.001 µM,104% [middle of 4 runs]
same,"viability, T/C",compound 0.00316 µM,96.1% [middle of 4 runs]
same,"viability, T/C",compound 0.01 µM,93.1% [middle of 4 runs]
same,"viability, T/C",compound 0.0316 µM,104% [middle of 4 runs]
same,"viability, T/C",compound 0.1 µM,90.4% [middle of 4 runs]
same,pIC50,curve of compound,< 7.00
CC1(C)CCC(Nc2ncc(C(F)(F)F)c(-c3c[nH]c4c(P(C)(C)=O)c(C#N)ccc34)n2)CN1 (stereo unspecified) + CC(Nc1ncnc2nc[nH]c12)c1cc2cccc(Cl)c2c(=O)n1-c1ccccc1,pIC50,[1],< 5.00
same,pIC50,[2],< 5.00
same,pIC50,[3],< 5.00
same,pIC50,[4],< 5.00
same,pIC50,"curve of first compound, second compound 3.16 µM",< 5.00
same,pIC50,"curve of first compound, second compound 10 µM",5.04
same,"viability, T/C",[5],97.6%
same,"viability, T/C",[6],93%
same,"viability, T/C",[7],93.1%
same,"viability, T/C",[8],129%
same,"viability, T/C",[9],160%
same,"viability, T/C",[10],64.5%
same,"viability, T/C",[11],98%
same,"viability, T/C",[12],91.5%
same,"viability, T/C",[13],95.1%
same,"viability, T/C",[14],117%
same,"viability, T/C",[15],159%
same,"viability, T/C",[16],52.2%
same,"viability, T/C",[17],93.8%
same,"viability, T/C",[18],86.8%
same,"viability, T/C",[19],114%
same,"viability, T/C",[20],120%
same,"viability, T/C",[21],164%
same,"viability, T/C",[22],55.7%
same,"viability, T/C",[23],98.8%
same,"viability, T/C",[24],92.9%
same,"viability, T/C",[25],86.5%
same,"viability, T/C",[26],139%
same,"viability, T/C",[27],166%
same,"viability, T/C",[28],54.1%
same,"viability, T/C","second compound 3.16 µM, first compound 0.0316 µM",91.9%
same,"viability, T/C","second compound 3.16 µM, first compound 0.1 µM",86%
same,"viability, T/C","second compound 3.16 µM, first compound 0.316 µM",89.6%
same,"viability, T/C","second compound 3.16 µM, first compound 1 µM",113%
same,"viability, T/C","second compound 3.16 µM, first compound 3.16 µM",154%
same,"viability, T/C","second compound 3.16 µM, first compound 10 µM",53.3%
same,"viability, T/C","second compound 10 µM, first compound 0.0316 µM",88.7%
same,"viability, T/C","second compound 10 µM, first compound 0.1 µM",81.6%
same,"viability, T/C","second compound 10 µM, first compound 0.316 µM",102%
same,"viability, T/C","second compound 10 µM, first compound 1 µM",128%
same,"viability, T/C","second compound 10 µM, first compound 3.16 µM",152%
same,"viability, T/C","second compound 10 µM, first compound 10 µM",44.7%
